Measured values reported in US20250332173A1, “COMPOUNDS AND METHODS FOR MODULATING NUCLEIC ACID SPLICING” (REMIX THERAPEUTICS INC., priority 2021, published 2025).
Where two headings read alike, the source gives them in different places.

Key:
[1] = tested on: HTT; assay: HiBiT protein abundance assay, HTT HiBiT K562 cell line; format: cell-based, human; settings: 24 hours, top dose 10 μM
Summary of the method: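 K562 knock-in lines with endogenous HiBiT-tagged target, 10,000 cells/well in IMDM + FBS, treated 24 h at 37° C with 10-point 3-fold dilutions (top 10 μM final; DMSO ≤0.25%). Lytic Nano-Glo HiBiT luminescence normalized to untagged K562 baseline and DMSO controls; IC50 = concentration giving 50% abundance via four-parameter fit.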

[2] = tested on: SMN2 mRNA; assay: RT-qPCR splicing assay, SMN2 canonical junction (CJ) mRNA; format: cell-based, human; settings: Homo sapiens
Summary of the method: (§1)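 Cells are plated (A673 allowed 24 h to adhere), dosed with an 11-point 3-fold series topping at 10 uM final, and incubated 24 h at 37 °C. Lysis is followed by cDNA synthesis and qPCR of the CJ transcript, normalized to a housekeeping gene.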

[3] = tested on: K562 (human chronic myelogenous leukemia) cells; assay: Cell Titer Glo 2.0 cell viability assay; format: cell-based; settings: Homo sapiens, K562, 72 h, K562 cells, 72 hours, Cell Titer Glo 2.0; read-out: K562 GI50
[4] = tested on: Target C; assay: RT-qPCR splicing assay panel, Target C canonical junction (CJ) mRNA; format: cell-based, human; settings: Homo sapiens
Summary of the method: as §1

[5] = HiBiT lytic detection, modified K562 cells, read-out: Effect on protein abundance, HTT (IC50)
[6] = canonical junction qPCR panel, Table 5, read-out: SMN2 (decrease in CJ mRNA levels, IC50)
[7] = canonical junction qPCR panel, Table 5, read-out: Target C (decrease in CJ mRNA levels, IC50)
[8] = HiBiT K562 cell line, read-out: Effect on protein abundance, HTT (IC50 category)
[9] = Table 5 panel, canonical junction qPCR, compound concentration having 50% response in CJ decrease, read-out: SMN2 IC50 (decrease in CJ mRNA levels)
[10] = Table 5 panel, canonical junction qPCR, compound concentration having 50% response in CJ decrease, read-out: Target C IC50 (decrease in CJ mRNA levels)

Cn1cc2ccc(-n3cnc4ccc(NC5CCNCC5)cc4c3=O)cc2n1 [Compound 2164]
IC50 [1, 5]: > 10000 nM | IC50 [2, 6]: > 10000 nM | GI50 [3]: > 10000 nM | IC50 [4, 7]: 1000 to 10000 nM

Cn1cc2cc(-c3ncc4c(=O)n([C@@H]5CCNC5)ccc4n3)c(O)c(F)c2n1 [Compound 1466]
IC50 [1, 5]: 100 to 1000 nM | IC50 [2, 6]: < 100 nM | GI50 [3]: 100 to 1000 nM | IC50 [4, 7]: 100 to 1000 nM

Cc1cc(-c2ccc3c(c2)CCN(C2CCNCC2)C3=O)cc2cn(C)nc12 [Compound 219, 6-(2,7-dimethylindazol-5-yl)-2-(piperidin-4-yl)-3,4-dihydroisoquinolin-1-one]
IC50 [1, 8]: 100 to 1000 nM | IC50 [2, 9]: < 100 nM | GI50 [3]: 1000 to 10000 nM | IC50 [4, 10]: 1000 to 10000 nM

Cc1cn2nc(-n3cnc4ccc(N5CCN(C)CC5)cc4c3=O)cc(C)c2n1 [Compound 2202]
IC50 [1, 5]: 1000 to 10000 nM | IC50 [2, 6]: 1000 to 10000 nM | GI50 [3]: 1000 to 10000 nM | IC50 [4, 7]: 1000 to 10000 nM

Cc1c(O)c(-c2ncc3c(=O)n([C@H]4CCN[C@H](C)C4)ccc3n2)cc2cn(C)nc12 [Compound 1461, 2-(6-hydroxy-2,7-dimethyl-indazol-5-yl)-6-[(2R,4S)-2-methyl-4-piperidyl]pyrido[4,3-d]pyrimidin-5-one]
IC50 [1, 8]: 100 to 1000 nM | IC50 [2, 6]: < 100 nM | GI50 [3]: < 100 nM | IC50 [4, 7]: 100 to 1000 nM

Cc1cn2nc(-n3cnc4cc(N5CCNCC5)ccc4c3=O)cc(C)c2n1 [Compound 241]
IC50 [1, 8]: 1000 to 10000 nM | IC50 [2, 9]: 1000 to 10000 nM | GI50 [3]: 1000 to 10000 nM | IC50 [4, 10]: 1000 to 10000 nM

CCN1CC[C@H](n2ncc3nc(-c4cc(C)c5nc(C)cn5n4)ccc3c2=O)CC12CC2 [Compound 1531]
IC50 [1, 5]: 100 to 1000 nM | IC50 [2, 6]: < 100 nM | GI50 [3]: 100 to 1000 nM | IC50 [4, 7]: 100 to 1000 nM

Cc1cn2cc(-c3ncc4c(=O)n(C56CCC(N)(CC5)C6)ccc4n3)cc(F)c2n1 [Compound 1469, 6-(4-aminonorbornane-1-yl)-2-(8-fluoro-2-methyl-imidazo[1,2-a]pyridin-6-yl)pyrido[4,3-d]pyrimidin-5-one]
IC50 [1, 5]: 1000 to 10000 nM | IC50 [2, 6]: < 100 nM | GI50 [3]: 100 to 1000 nM | IC50 [4, 7]: 100 to 1000 nM

Cc1cn2nc(-c3ccc4c(=O)n([C@H]5CCN(C)[C@@H](C)C5)ncc4n3)cc(C)c2n1 [Compound 1528, 2-(2,8-dimethylimidazo[1,2-b]pyridazin-6-yl)-6-(1,2-dimethyl-4-piperidyl)pyrido[2,3-d]pyridazin-5-one]
IC50 [1, 5]: 100 to 1000 nM | IC50 [2, 6]: 100 to 1000 nM | GI50 [3]: 100 to 1000 nM | IC50 [4, 7]: 100 to 1000 nM

Cc1c(O)c(-c2ncc3c(=O)n([C@H]4CC[C@H](N(C)C)CC4)ccc3n2)cc2cn(C)nc12 [Compound 1459, 6-((1r,4r)-4-(dimethylamino)cyclohexyl)-2-(6-hydroxy-2,7-dimethyl-2H-indazol-5-yl)pyrido[4,3-d]pyrimidin-5(6H)-one]
IC50 [1, 8]: 100 to 1000 nM | IC50 [2, 6]: < 100 nM | GI50 [3]: < 100 nM | IC50 [4, 7]: 100 to 1000 nM

Cc1cn2cc(-c3ccc4c(=O)n(C5CCNC(C)(C)C5)cnc4c3)cc(F)c2n1 (stereo not shown) [Compound 237]
IC50 [1, 8]: 100 to 1000 nM | IC50 [2, 9]: < 100 nM | GI50 [3]: 100 to 1000 nM | IC50 [4, 10]: 1000 to 10000 nM

Cc1cn2nc(-c3ccc4c(c3)CCN(C3CCNCC3)C4=O)nc2c(C)n1 [Compound 222, 6-[6,8-dimethyl-[1,2,4]triazolo[1,5-a]pyrazin-2-yl]-2-(piperidin-4-yl)-3,4-dihydroisoquinolin-1-one]
IC50 [1, 8]: 1000 to 10000 nM | IC50 [2, 9]: 100 to 1000 nM | GI50 [3]: 1000 to 10000 nM | IC50 [4, 10]: 1000 to 10000 nM

Cc1nc2c(F)cc(-c3ccc4c(c3)CCN(C3CCNCC3)C4=O)cc2s1 [Compound 226]
IC50 [1, 8]: 1000 to 10000 nM | IC50 [2, 9]: 100 to 1000 nM | GI50 [3]: 1000 to 10000 nM | IC50 [4, 10]: > 10000 nM

Cc1cn2nc(-c3ccc4c(=O)n(C5CCNC6(CCC6)C5)ncc4n3)cc(C)c2n1 (stereo not shown) [Compound 1553]
IC50 [1, 5]: 100 to 1000 nM | IC50 [2, 6]: 100 to 1000 nM | GI50 [3]: 1000 to 10000 nM | IC50 [4, 7]: 1000 to 10000 nM

Cc1cn2nc(-c3cc(F)c4c(=O)n(C5CCN(C)CC5)cnc4c3)cc(C)c2n1 [Compound 242]
IC50 [1, 8]: < 100 nM | IC50 [2, 9]: < 100 nM | GI50 [3]: 100 to 1000 nM | IC50 [4, 10]: 100 to 1000 nM

Cc1cn2nc(-c3ccc4c(=O)n([C@@H]5CCNC6(CCC6)C5)ncc4n3)cc(C)c2n1 [Compound 1545, 6-[(8R)-5-azaspiro[3.5]nonan-8-yl]-2-(2,8-dimethylimidazo[1,2-b]pyridazin-6-yl)pyrido[2,3-d]pyridazin-5-one]
IC50 [1, 5]: < 100 nM | IC50 [2, 6]: < 100 nM | GI50 [3]: 100 to 1000 nM | IC50 [4, 7]: 100 to 1000 nM

Cc1cn2cc(-c3ccc4c(=O)n(C5CCN(C)CC5)cnc4c3F)cc(F)c2n1 [Compound 227]
IC50 [1, 8]: 1000 to 10000 nM | IC50 [2, 9]: 100 to 1000 nM | GI50 [3]: 1000 to 10000 nM | IC50 [4, 10]: > 10000 nM

Cc1cn2nc(-c3ccc4c(=O)n(C5CC(C)N[C@H](C)C5)ncc4n3)cc(C)c2n1 (stereo in doubt) [Compound 1536, 2-(2,8-dimethylimidazo[1,2-b]pyridazin-6-yl)-6-[(2S,6R)-2,6-dimethyl-4-piperidyl]pyrido[2,3-d]pyridazin-5-one]
IC50 [1, 5]: 100 to 1000 nM | IC50 [2, 6]: < 100 nM | GI50 [3]: 100 to 1000 nM | IC50 [4, 7]: 100 to 1000 nM

Cc1cn2cc(-c3ccc4c(c3)CCN(C3CCNCC3)C4=O)ncc2n1 [Compound 224]
IC50 [1, 8]: > 10000 nM | IC50 [2, 9]: 100 to 1000 nM | GI50 [3]: > 10000 nM | IC50 [4, 10]: > 10000 nM

Cc1cn2nc(-c3ccc4c(=O)n([C@H]5CCN(C)C6(CC6)C5)ncc4n3)cc(C)c2n1 [Compound 1533]
IC50 [1, 5]: 100 to 1000 nM | IC50 [2, 6]: < 100 nM | GI50 [3]: 100 to 1000 nM | IC50 [4, 7]: 100 to 1000 nM

Cn1cc2cc(-n3cnc4ccc(N5CCNCC5)cc4c3=O)cc(F)c2n1 [Compound 2196]
IC50 [1, 5]: > 10000 nM | IC50 [2, 6]: > 10000 nM | GI50 [3]: > 10000 nM | IC50 [4, 7]: > 10000 nM

CN1CCC(Nc2ccc3ncn(-c4ccc5nn(C)cc5c4)c(=O)c3c2)CC1 [Compound 2171]
IC50 [1, 5]: > 10000 nM | IC50 [2, 6]: > 10000 nM | GI50 [3]: > 10000 nM | IC50 [4, 7]: > 10000 nM

CNC12CCC(n3ccc4nc(-c5cc6cn(C)nc6c(C)c5O)ncc4c3=O)(CC1)C2 [Compound 1479]
IC50 [1, 5]: 100 to 1000 nM | IC50 [2, 6]: < 100 nM | GI50 [3]: < 100 nM | IC50 [4, 7]: 1000 to 10000 nM

Cc1cn2cc(-c3cc(F)c4c(=O)n(C5CCN(C)CC5)cnc4c3)cc(F)c2n1 [Compound 231, 5-fluoro-7-{8-fluoro-2-methylimidazo[1,2-a]pyridin-6-yl}-3-(1-methylpiperidin-4-yl)quinazolin-4-one]
IC50 [1, 8]: 100 to 1000 nM | IC50 [2, 9]: < 100 nM | GI50 [3]: 100 to 1000 nM | IC50 [4, 10]: 1000 to 10000 nM

CN1CCC(N(C)c2ccc3ncn(-c4cc(F)c5nn(C)cc5c4)c(=O)c3c2)CC1 [Compound 2199]
IC50 [1, 5]: > 10000 nM | IC50 [2, 6]: > 10000 nM | GI50 [3]: > 10000 nM | IC50 [4, 7]: > 10000 nM

Cc1cn2nc(-c3ccc4c(c3)CCN(C3CCNCC3)C4=O)cc2c(C)n1 [Compound 223, 6-[4,6-dimethylpyrazolo[1,5-a]pyrazin-2-yl]-2-(piperidin-4-yl)-3,4-dihydroisoquinolin-1-one]
IC50 [1, 8]: 1000 to 10000 nM | IC50 [2, 9]: 100 to 1000 nM | GI50 [3]: 1000 to 10000 nM | IC50 [4, 10]: > 10000 nM

CN1CCC(n2cnc3cc(-c4ccc5nn(C)cc5c4)ccc3c2=O)CC1 [Compound 208]
IC50 [1, 8]: 1000 to 10000 nM | IC50 [2, 9]: 100 to 1000 nM | GI50 [3]: 1000 to 10000 nM | IC50 [4, 10]: > 10000 nM

Cc1cn2cc(-c3cc(F)c4c(=O)n(C5CCNCC5)cnc4c3)cc(F)c2n1 [Compound 230]
IC50 [1, 8]: 100 to 1000 nM | IC50 [2, 9]: < 100 nM | GI50 [3]: 100 to 1000 nM | IC50 [4, 10]: < 100 nM
